Laboratory results taken from PMC12920294, “Optimizing uPAR-targeting radiopeptides for improved tissue distribution: progress towards radionuclide therapy” (European Journal of Nuclear Medicine and Molecular Imaging, 2025).
Read-outs that look alike come from different tables or passages of the source. Marks after values point to notes of the source that are not given here.

Key:
[1] = design: method as in Beyer et al. 2025, Mol Pharm 22:3242; details: saline, L-ascorbic acid, ref Beyer et al. 2025, Mol Pharm 22:3242, cited from earlier work
[2] = design: method as in Beyer et al. 2025, Mol Pharm 22:3242; details: 37 °C, ref Beyer et al. 2025, Mol Pharm 22:3242, cited from earlier work
[3] = tested on: HEK-uPAR xenograft-bearing mice; details: ref Beyer et al. 2025, Mol Pharm 22:3242, cited from earlier work
[4] = tested on: HEK-uPAR xenograft-bearing mice; details: mouse, in vivo
Method: (§1) HEK-uPAR xenografted mice were injected with the respective radiopeptide (5 MBq, 0.5 nmol/mouse, 100 µL 0.9% NaCl containing 0.05% BSA) and sacrificed at 4 h and 24 h after injection. […] The tissues and organs of interest were collected, weighed and counted for activity using a γ-counter (Wallac Wizard 1480, PerkinElmer). […] The results were presented as the average ± SD of n = 3 mice. The time-activity curves were determined for the uptake of [^177Lu]Lu-DOTA-AE105 and [^177Lu]Lu-uPAR-11 in the blood, HEK-uPAR xenografts, kidneys and liver based on non-decay corrected biodistribution data. For the blood, the initial uptake (t = 0) was set as 50% IA/g assuming a blood volume of 2 mL for CD1 nude mice. The initial uptake value (t = 0) for all other organs and tissues was set as 0% IA/g. […] The area under the curves over 48 h after injection (AUC0h→48 h) was calculated using GraphPad Prism software (version 10.1.1). Statistical analyses were performed by applying a one-way ANOVA test with a Dunnet’s multiple comparison post‐test to compare the data of the new radiopeptides with those of [^177Lu]Lu-DOTA-AE105 and a Tukey’s multiple comparisons post‐test to compare the novel radiopeptides among them. A p-value of < 0.05 was considered a statistically significant difference using GraphPad Prism software (version 10.1.1).

[5] = Biodistribution in HEK-uPAR xenografted nude mice; details: CD1 nude, mouse, 0.5 nmol/mouse, total radioactivity, 1 h p.i., decay-corrected
Method: as §1

[6] = tested on: HEK-uPAR xenograft-bearing mice; experiment: Biodistribution in HEK-uPAR xenografted nude mice
Method: as §1

[7] = design: method as in Beyer et al. 2025, Mol Pharm 22:3242; details: 37 °C, ref Beyer et al. 2025, Mol Pharm 22:3242, cited from earlier work; remark: listed apart in the source
[8] = design: method as in Beyer et al. 2025, Mol Pharm 22:3242; details: FVB mice, ref Beyer et al. 2025, Mol Pharm 22:3242, cited from earlier work
human serum albumin = human serum albumin (Homo sapiens, UniProt P02768); details: cited from earlier work
Sequence of human serum albumin (P02768 25-609): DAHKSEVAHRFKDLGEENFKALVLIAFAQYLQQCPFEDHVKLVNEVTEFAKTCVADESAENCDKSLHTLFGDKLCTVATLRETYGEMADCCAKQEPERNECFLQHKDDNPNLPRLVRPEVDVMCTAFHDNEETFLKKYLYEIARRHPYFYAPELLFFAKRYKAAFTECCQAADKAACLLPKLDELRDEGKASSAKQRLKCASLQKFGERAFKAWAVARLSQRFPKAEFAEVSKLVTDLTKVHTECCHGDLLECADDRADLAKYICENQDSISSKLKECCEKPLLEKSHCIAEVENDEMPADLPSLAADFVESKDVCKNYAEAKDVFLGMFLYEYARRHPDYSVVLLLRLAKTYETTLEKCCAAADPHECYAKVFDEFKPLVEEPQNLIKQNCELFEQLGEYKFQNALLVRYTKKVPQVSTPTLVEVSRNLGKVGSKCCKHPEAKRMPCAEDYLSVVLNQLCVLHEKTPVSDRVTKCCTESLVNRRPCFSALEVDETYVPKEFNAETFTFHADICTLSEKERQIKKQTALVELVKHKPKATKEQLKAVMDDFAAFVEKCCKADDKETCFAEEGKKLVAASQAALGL

[9] = non-decay-corrected, ± standard error

## CC(C)C[C@H](NC(=O)[C@H](Cc1ccc(O)cc1)NC(=O)[C@@H](CCCNC(=N)N)NC(=O)[C@@H](CO)NC(=O)[C@H](Cc1ccccc1)NC(=O)[C@H](CC1CCCCC1)NC(=O)[C@H](CC(=O)O)NC(=O)CN1CCN(CC(=O)O)CCN(CC(=O)O)CCN(CC(=O)O)CC1)C(=O)N[C@@H](Cc1c[nH]c2ccccc12)C(=O)N[C@@H](CO)C(N)=O [[^177Lu]Lu-DOTA-AE105, metal not drawn]
[1]; 1 h
  Radiolytic stability, intact radiopeptide: 98 ± 2%
[1]; 4 h
  Radiolytic stability, intact radiopeptide: 98 ± 1%
[1]; 24 h
  Radiolytic stability, intact radiopeptide: 96 ± 2%
[2]; 1 h
  Human blood plasma stability, intact radiopeptide: 71 ± 3%
[2]; 4 h
  Human blood plasma stability, intact radiopeptide: 13 ± 6%
[2]; 24 h
  Human blood plasma stability, intact radiopeptide: 4.5 ± 1.2%
[3]; 4 h p.i.
  Blood uptake: 0.08 ± 0.01 %IA/g
  Bone uptake: 0.38 ± 0.03 %IA/g
  Brain uptake: <0.03 %IA/g
  HEK-uPAR xenograft uptake: 0.87 ± 0.05 %IA/g
  Heart uptake: 0.06 ± 0.01 %IA/g
  Intestines uptake: 0.31 ± 0.03 %IA/g
  Kidneys uptake: 1.5 ± 0.1 %IA/g
  Liver uptake: 0.10 ± 0.01 %IA/g
  Lung uptake: 0.30 ± 0.02 %IA/g
  Muscle uptake: <0.03 %IA/g
  Pancreas uptake: 0.06 ± 0.01 %IA/g
  Salivary glands uptake: 0.09 ± 0.01 %IA/g
  Spleen uptake: 0.18 ± 0.02 %IA/g
  Stomach uptake: 0.15 ± 0.03 %IA/g
  Xgrft-to-blood ratio: 11 ± 1
  Xgrft-to-liver ratio: 8.6 ± 0.4
[3]; 24 h p.i.
  Blood uptake: <0.03 %IA/g
  Bone uptake: 0.84 ± 0.10 %IA/g
  Brain uptake: <0.03 %IA/g
  HEK-uPAR xenograft uptake: 0.40 ± 0.19 %IA/g
  Heart uptake: 0.04 ± 0.01 %IA/g
  Intestines uptake: 0.18 ± 0.02 %IA/g
  Kidneys uptake: 1.3 ± 0.1 %IA/g
  Liver uptake: 0.17 ± 0.01 %IA/g
  Lung uptake: 0.21 ± 0.01 %IA/g
  Muscle uptake: <0.03 %IA/g
  Pancreas uptake: 0.06 ± 0.01 %IA/g
  Salivary glands uptake: 0.09 ± 0.01 %IA/g
  Spleen uptake: 0.23 ± 0.04 %IA/g
  Stomach uptake: 0.17 ± 0.03 %IA/g
  Xgrft-to-blood ratio: 32 ± 13
  Xgrft-to-liver ratio: 2.4 ± 0.9
[4]
  Xgrft-to-kidney ratio: 0.46 ± 0.07
[5]; HEK-uPAR xenograft, HEK-uPAR xenograft uptake
  tissue uptake at 1 h: 1.9 ± 0.7 %ID/g
[5]; blood, Blood uptake
  tissue uptake at 1 h: 0.92 ± 0.4 %ID/g
[5]; bone, Bone uptake
  tissue uptake at 1 h: 0.35 ± 0.11 %ID/g
[5]; brain, Brain uptake
  tissue uptake at 1 h: < 0.03 %ID/g
[5]; heart, Heart uptake
  tissue uptake at 1 h: 0.38 ± 0.16 %ID/g
[5]; intestines, Intestines uptake
  tissue uptake at 1 h: 0.52 ± 0.1 %ID/g
[5]; kidneys, Kidneys uptake
  tissue uptake at 1 h: 4.2 ± 0.8 %ID/g
[5]; liver, Liver uptake
  tissue uptake at 1 h: 0.4 ± 0.14 %ID/g
[5]; lung, Lung uptake
  tissue uptake at 1 h: 1.2 ± 0.4 %ID/g
[5]; muscle, Muscle uptake
  tissue uptake at 1 h: 0.14 ± 0.06 %ID/g
[5]; pancreas, Pancreas uptake
  tissue uptake at 1 h: 0.26 ± 0.08 %ID/g
[5]; salivary glands, Salivary glands uptake
  tissue uptake at 1 h: 0.35 ± 0.13 %ID/g
[5]; spleen, Spleen uptake
  tissue uptake at 1 h: 0.47 ± 0.17 %ID/g
[5]; stomach, Stomach uptake
  tissue uptake at 1 h: 0.39 ± 0.2 %ID/g
[6]; 1 h p.i.
  Xgrft-to-blood ratio: 2.2 ± 0.2
  Xgrft-to-liver ratio: 4.9 ± 0.1
[6]; [9]
  AUC0h→48h, HEK-uPAR xenograft: 26 ± 3 % IA/g*h
  AUC0h→48h, blood: 28 ± 1 % IA/g*h
  AUC0h→48h, kidneys: 62 ± 2 % IA/g*h
  AUC0h→48h, liver: 6.9 ± 0.2 % IA/g*h
[7]; 1 h
  Mouse blood plasma stability, intact radiopeptide: 61 ± 6%
[7]; 4 h
  Mouse blood plasma stability, intact radiopeptide: 13 ± 7%
[7]; 24 h
  Mouse blood plasma stability, intact radiopeptide: 4.6 ± 2.2%
[8]; 1 h p.i.
  Blood plasma, intact radiopeptide: <1.0%
  Blood plasma, radiometabolite: >99%
  Kidneys, intact radiopeptide: <1.0%
  Kidneys, radiometabolite: >99%
  Liver, intact radiopeptide: <1.0%
  Liver, radiometabolite: >99%
  Urine, intact radiopeptide: 1.4%
  Urine, radiometabolite: 99%
[8]; 4 h p.i.
  Blood plasma, intact radiopeptide: <1.0%
  Blood plasma, radiometabolite: >99%
  Kidneys, intact radiopeptide: <1.0%
  Kidneys, radiometabolite: >99%
  Liver, intact radiopeptide: <1.0%
  Liver, radiometabolite: >99%
  Urine, intact radiopeptide: 2.3%
  Urine, radiometabolite: 98%
Human serum albumin
  Inverse relative albumin-binding affinity: 0.02^a
